The experiment concerns the target HDAC1 (Homo sapiens, UniProt Q13547). The experiment in a line: Simple Western immunoassay, HDAC1 levels in U-87MG cell lysates. The class given is cell-based. More on the design: endogenous in cells; host or cells: MM.1S. The following applies: 10 μM, 24 h. On the procedure: Figure S5. Analysis of HDAC1 and 6 degradation in U-87MG cells. Simple western immunoassay analysis of U-87MG cell lysates. The cells were treated with the indicated compound (10 µM) or vehicle (DMSO) for 24 h. Top: Quantification of HDAC levels, presented as mean ± standard deviation of n = 2 biological replicates; Significance compared to vehicle: ns = p≥0.05 and *** = p≤0.001. Bottom:
Representative images of n = 2 biological replicates.
(1 picture or pasted object on this page, not shown here)
2. Biological Experiments
No unexpected or unusually high safety hazards were encountered.
The human multiple myeloma cell line MM.1S (CRL-2974) was obtained from American Type Culture Collection (ATCC, Manassas, VA, USA). […]
Louis, MO, USA) according to manufacturer´s instructions. Protein content was determined by Pierce™ BCA Protein Assay Kit (Catalog# 23225, Thermo Fisher Scientific Inc.) according to manufacturer´s guidelines. […]
Fluorescence Separation 8x25 Capillary Cartridges (Catalog# SM-FL004-1, Protein Simple, Bio-Techne, Minneapolis, MN, USA) were used for separation and the Anti-Mouse Detection Module (Catalog# DM-002, Protein Simple) was used for detection with addition of 20x Anti-Rabbit HRP […]
Conjugate (Catalog# 043-426, Protein Simple) according to manufacturer´s instructions. […] Evaluation and quantification was performed with the compass software (6.2.0, Protein Simple). […]

Sequence of HDAC1 (Q13547 whole entry): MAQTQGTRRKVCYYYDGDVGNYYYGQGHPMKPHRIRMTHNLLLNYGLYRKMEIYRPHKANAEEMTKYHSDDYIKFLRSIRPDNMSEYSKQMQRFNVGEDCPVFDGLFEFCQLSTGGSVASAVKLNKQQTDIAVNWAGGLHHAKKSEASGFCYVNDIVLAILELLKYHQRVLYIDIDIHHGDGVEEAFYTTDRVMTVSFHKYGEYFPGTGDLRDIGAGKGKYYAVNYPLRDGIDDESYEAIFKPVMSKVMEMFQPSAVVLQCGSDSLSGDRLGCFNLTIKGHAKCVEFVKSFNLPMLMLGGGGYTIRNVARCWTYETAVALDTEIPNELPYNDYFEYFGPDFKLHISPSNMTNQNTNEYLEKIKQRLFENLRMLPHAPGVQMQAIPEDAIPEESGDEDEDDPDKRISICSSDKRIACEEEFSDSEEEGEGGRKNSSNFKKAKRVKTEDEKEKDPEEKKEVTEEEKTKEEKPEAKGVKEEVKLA

As to `O=C(CCCCCCNC(=O)c1ccc(NC(=O)CCCCCCCCCCCN(C(=O)CCl)C(C(=O)NCc2ccccc2)c2ccc(Cl)c(Cl)c2)cc1)NO` (centres unmarked) [Compound 1j], the “HDAC1 degradation in U-87MG cells” value was “significant HDAC1 and 6 degradation”.

As for `O=C(CCCCCCNC(=O)c1ccc(N(C(=O)CCl)C(C(=O)NCc2ccccc2)c2ccc(Cl)c(Cl)c2)cc1)NO` (centres unmarked) [Compound 2], the “HDAC1 degradation in U-87MG cells” value is recorded as “significant degradation for HDAC1”.

The values above are taken from paper PMC12091851, “Replacing a Cereblon Ligand by a DDB1 and CUL4 Associated Factor 11 (DCAF11) Recruiter Converts a Selective Histone Deacetylase 6 PROTAC into a Pan‐Degrader” (Chemmedchem, 2025).
